Measured values as given in paper PMC6730478, “Discovery of N-(2-Aminophenyl)-4-(bis(2-chloroethyl)amino)Benzamide as a Potent Histone Deacetylase Inhibitor” (Frontiers in Pharmacology, 2019).

Tests used:
HepG2 cells [1] = test: Annexin V-FITC/PI apoptosis detection (flow cytometry); format: cell-based; details: 24 h, control 3.52%
Method: Cells were then washed with PBS, collected, resuspended with binding buffer from the annexin V-FITC kit (Thermo Fisher Co., USA) and then added with 5 µl of annexin V-FITC and mixed gently. After 10 min of incubation, 1 µl of PI was added to each sample and mixed gently. After incubation at room temperature for another 20 min in the dark, cells were subjected to flow cytometry (CytoFLEX, Beckman Coulter).

A2780 cells = test: MTT antiproliferative assay; format: cell-based; details: for IC50: Homo sapiens, A2780, 48 h, read-out: Antiproliferative activity IC50, A2780
Method: . The stock solutions of tested compounds were diluted with culture medium. The cells were seeded in 96-well plates at a density 5 × 10^3 cells per well and incubated until confluency of 90–95%, and then each well was treated with 100 µl of medium containing the desired concentrations of tested compounds and incubated for 48 h. MTT working solution of 20 µl (5 mg/ml) was then added to each well and incubated for another 4 h. At the end of incubation, the medium were carefully removed, and 200 µl of DMSO was added. The optical density at 490 and 630 nm was then measured with a microplate reader (Model 680, Bio-Rad). […] The IC50 values were calculated with Origin 7.5 software, and standard deviations of the IC50 values were obtained from at least three independent experiments.

HepG2 cells [2] = test: Cell cycle assay (PI staining, flow cytometry); format: cell-based; details: 6 h; for HepG2 cells at the G2/M phase: control 21.24%; for HepG2 cell population at the G0/G1 phase: control 55.60%
Method: Cells were then washed twice with cold phosphate-buffered saline (PBS) and fixed in 70% precooled ethanol at 4°C for 12 h. After the fixation, cells were washed again with PBS and stained with PI/RNase A for 30 min at room temperature and eventually subjected to flow cytometry (CytoFLEX, Beckman Coulter) for cell cycle distribution determination.

phosphorylated cdc2 = test: Western blot in HepG2 cells; format: cell-based; details: 1 µM, 24 h, compared with SAHA
Method: (§1) Protein sample concentrations were determined with Brandford assay. Thirty micrograms of each sample was subjected to sodium dodecyl sulfate–polyacrylamide gel electrophoresis (SDS-PAGE). After electrophoresis, proteins were transferred to polyvinylidene difluoride (PVDF) membrane (Millipore) and blocked with 5% fat-free dry milk in 1 × Tris-buffered saline (TBST) for 2 h at room temperature. Membranes were then probed with corresponding antibodies at 4°C overnight. Cleaved caspase-3 (#9661), caspase-3 (#9662), cleaved caspase-9 (#9505), caspase-9 (#9508), phospho-cdc2 (#4539), and cdc2 (#77055) antibodies were obtained from Cell Signaling Technology (Danvers, MA). Expression of human β-actin was detected with anti-β-actin antibody (Proteintech, Rosemont, IL) as a loading control. The membranes were then incubated with horseradish peroxidase (HRP)-conjugated secondary antibody (Santa Cruz, CA) and visualized with enhanced chemiluminescence (ECL)-detecting reagents (ComWin Biotech Co., Beijing, China).

cleaved caspase-9 = test: Western blot in HepG2 cells; format: cell-based; details: 1 µM, 24 h, compared with SAHA
Method: as §1

cleaved caspase-3 = test: Western blot in HepG2 cells; format: cell-based; details: 1 µM, 24 h, compared with SAHA
Method: as §1

PNAC-1 cells = test: MTT antiproliferative assay; format: cell-based; details: 48 h, read-out: Antiproliferative activity IC50, PNAC-1
Method: (§2) The stock solutions of tested compounds were diluted with culture medium. […] MTT working solution of 20 µl (5 mg/ml) was then added to each well and incubated for another 4 h. At the end of incubation, the medium were carefully removed, and 200 µl of DMSO was added. The optical density at 490 and 630 nm was then measured with a microplate reader (Model 680, Bio-Rad). […] The IC50 values were calculated with Origin 7.5 software, and standard deviations of the IC50 values were obtained from at least three independent experiments.

SKOV3 cells = test: MTT antiproliferative assay; format: cell-based; details: Homo sapiens, SK-OV-3, 48 h, read-out: Antiproliferative activity IC50, SKOV3
Method: as §2

A549 cells = test: MTT antiproliferative assay; format: cell-based; details: Homo sapiens, A549, 48 h, read-out: Antiproliferative activity IC50, A549
Method: as §2

Colo205 cells = test: MTT antiproliferative assay; format: cell-based; details: Homo sapiens, COLO 205, 48 h, read-out: Antiproliferative activity IC50, Colo205
Method: as §2

MDA-MB-231 cells = test: MTT antiproliferative assay; format: cell-based; details: Homo sapiens, MDA-MB-231, 48 h, read-out: Antiproliferative activity IC50, MDA-MB-231
Method: as §2

U937 cells = test: MTT antiproliferative assay; format: cell-based; details: Homo sapiens, U-937, 48 h, read-out: Antiproliferative activity IC50, U937
Method: as §2

Calu-3 cells = test: MTT antiproliferative assay; format: cell-based; details: Homo sapiens, Calu-3, 48 h, read-out: Antiproliferative activity IC50, Calu-3
Method: as §2

HepG2 cells [3] = test: MTT antiproliferative assay; format: cell-based
Method: as §2

MDA-MB-468 cells = test: MTT antiproliferative assay; format: cell-based; details: Homo sapiens, MDA-MB-468, 48 h, read-out: Antiproliferative activity IC50, MDA-MB-468
Method: as §2

MKN45 cells = test: MTT antiproliferative assay; format: cell-based; details: Homo sapiens, MKN-45, 48 h, read-out: Antiproliferative activity IC50, MKN45
Method: as §2

LoVo cells = test: MTT antiproliferative assay; format: cell-based; details: Homo sapiens, 48 h, read-out: Antiproliferative activity IC50, LoVo
Method: as §2

MCF-7 cells = test: MTT antiproliferative assay; format: cell-based; details: Homo sapiens, MCF7, 48 h, read-out: Antiproliferative activity IC50, MCF-7
Method: as §2

HDAC8 = target: T1, HDAC8 (Homo sapiens, UniProt Q9BY41); test: biochemical
T1 construct: purchased BPS Bioscience
T1 sequence (Q9BY41 whole entry): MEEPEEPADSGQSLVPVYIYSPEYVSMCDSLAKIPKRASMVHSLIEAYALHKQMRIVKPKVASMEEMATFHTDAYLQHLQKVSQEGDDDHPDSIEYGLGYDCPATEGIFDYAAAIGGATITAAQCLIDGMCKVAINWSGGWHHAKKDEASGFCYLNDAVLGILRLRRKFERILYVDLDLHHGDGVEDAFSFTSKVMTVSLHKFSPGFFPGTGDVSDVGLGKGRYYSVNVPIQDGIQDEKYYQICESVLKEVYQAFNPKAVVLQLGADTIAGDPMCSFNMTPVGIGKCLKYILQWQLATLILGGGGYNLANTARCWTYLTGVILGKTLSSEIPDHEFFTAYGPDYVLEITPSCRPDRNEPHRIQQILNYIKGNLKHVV
Method: (§3) All of the HDAC enzymes were bought from BPS Bioscience. In vitro HDAC inhibition assays were conducted as previously described. Briefly, 20 μl of recombinant HDAC enzyme solution (HDAC1−9) was mixed with various concentrations of tested compound (20 μl). The mixture was incubated at 30°C for 1 h (for the time-dependent assay, the mixture was incubated for 15, 30, 60, and 90 min, respectively), and then 10 μl of fluorogenic substrate (Boc-Lys (acetyl)-AMC (3 mM) for HDAC1, 2, 3, and 6, Boc-Lys (trifluoroacetyl)-AMC (3 mM) for HDAC 4, 7, 8, and 9) was added. After incubation at 30°C for 2 h, the catalytic reaction was stopped by addition of 10 μl of developer containing trypsin and trichostatin A (TSA). After 30 min, fluorescence intensity was measured using a microplate reader at excitation and emission wavelengths of 360 and 460 nm, respectively. The inhibition ratios were calculated from the fluorescence intensity readings of tested wells relative to those of control wells, and the IC50 curves and values were determined by GraphPad Prism 6.0 software.

HDAC9 = target: T2, HDAC9 (Homo sapiens, UniProt Q9UKV0); test: biochemical
T2 construct: purchased BPS Bioscience
T2 sequence (Q9UKV0 whole entry): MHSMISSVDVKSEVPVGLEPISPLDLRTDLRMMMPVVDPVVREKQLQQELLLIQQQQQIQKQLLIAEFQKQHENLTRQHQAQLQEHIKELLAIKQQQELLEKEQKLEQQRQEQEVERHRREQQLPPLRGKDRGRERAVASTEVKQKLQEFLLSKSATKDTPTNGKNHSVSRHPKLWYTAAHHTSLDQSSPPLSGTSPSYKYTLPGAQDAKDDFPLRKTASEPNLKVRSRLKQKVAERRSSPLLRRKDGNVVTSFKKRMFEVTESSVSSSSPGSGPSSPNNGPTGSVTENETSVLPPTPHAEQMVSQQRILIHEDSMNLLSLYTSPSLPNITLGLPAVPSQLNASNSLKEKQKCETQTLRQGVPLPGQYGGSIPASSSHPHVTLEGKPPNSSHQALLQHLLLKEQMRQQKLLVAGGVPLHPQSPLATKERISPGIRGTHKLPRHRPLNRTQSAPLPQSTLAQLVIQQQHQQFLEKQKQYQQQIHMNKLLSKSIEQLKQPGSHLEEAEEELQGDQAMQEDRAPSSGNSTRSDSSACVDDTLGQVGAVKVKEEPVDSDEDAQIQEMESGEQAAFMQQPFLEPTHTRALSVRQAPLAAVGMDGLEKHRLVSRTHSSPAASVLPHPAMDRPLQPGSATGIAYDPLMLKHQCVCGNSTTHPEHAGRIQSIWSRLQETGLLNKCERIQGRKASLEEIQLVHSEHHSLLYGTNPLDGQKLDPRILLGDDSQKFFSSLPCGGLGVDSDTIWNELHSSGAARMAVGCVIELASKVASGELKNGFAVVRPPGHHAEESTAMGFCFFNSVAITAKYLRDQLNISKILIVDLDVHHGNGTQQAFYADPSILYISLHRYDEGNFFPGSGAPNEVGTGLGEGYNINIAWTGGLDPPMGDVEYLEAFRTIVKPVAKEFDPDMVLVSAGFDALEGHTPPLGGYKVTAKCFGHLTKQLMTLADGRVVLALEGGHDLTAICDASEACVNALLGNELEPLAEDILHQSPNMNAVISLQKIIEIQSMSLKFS
Method: as §3

HDAC4 = target: T3, HDAC4 (Homo sapiens, UniProt P56524); test: biochemical
T3 construct: purchased BPS Bioscience
T3 sequence (P56524 whole entry): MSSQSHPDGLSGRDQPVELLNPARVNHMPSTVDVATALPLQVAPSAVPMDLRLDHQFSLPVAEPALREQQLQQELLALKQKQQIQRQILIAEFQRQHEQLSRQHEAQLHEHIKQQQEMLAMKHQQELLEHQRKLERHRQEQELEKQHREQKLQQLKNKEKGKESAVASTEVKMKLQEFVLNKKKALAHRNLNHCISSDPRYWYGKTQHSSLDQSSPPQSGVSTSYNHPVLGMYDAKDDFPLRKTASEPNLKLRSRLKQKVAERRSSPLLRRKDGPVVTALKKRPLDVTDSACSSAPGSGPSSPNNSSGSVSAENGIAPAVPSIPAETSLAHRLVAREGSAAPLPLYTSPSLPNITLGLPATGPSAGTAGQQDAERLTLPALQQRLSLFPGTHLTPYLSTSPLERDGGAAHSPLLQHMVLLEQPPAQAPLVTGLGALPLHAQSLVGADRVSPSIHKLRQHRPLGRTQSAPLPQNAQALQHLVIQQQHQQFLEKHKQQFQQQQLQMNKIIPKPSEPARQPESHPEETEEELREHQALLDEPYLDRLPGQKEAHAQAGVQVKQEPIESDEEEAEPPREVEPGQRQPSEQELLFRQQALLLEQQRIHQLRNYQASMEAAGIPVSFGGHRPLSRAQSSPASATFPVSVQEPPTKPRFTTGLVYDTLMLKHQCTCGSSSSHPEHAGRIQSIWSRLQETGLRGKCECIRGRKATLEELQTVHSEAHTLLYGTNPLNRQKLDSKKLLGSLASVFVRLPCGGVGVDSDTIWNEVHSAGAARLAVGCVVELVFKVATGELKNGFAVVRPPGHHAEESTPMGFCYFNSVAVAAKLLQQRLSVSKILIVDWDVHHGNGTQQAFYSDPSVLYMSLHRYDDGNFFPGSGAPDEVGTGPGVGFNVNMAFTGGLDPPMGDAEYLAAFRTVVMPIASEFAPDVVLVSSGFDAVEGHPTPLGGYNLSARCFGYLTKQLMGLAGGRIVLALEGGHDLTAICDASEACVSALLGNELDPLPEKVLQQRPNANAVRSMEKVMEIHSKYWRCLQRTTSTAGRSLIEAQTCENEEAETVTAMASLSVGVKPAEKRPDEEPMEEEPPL
Method: as §3

HDAC3 = target: T4, HDAC3 (Homo sapiens, UniProt O15379); test: biochemical; details: n ≥ 2, SD <10% of the mean; read-out: Enzyme inhibitory activity IC50, HDAC3
T4 construct: purchased BPS Bioscience
T4 sequence (O15379 whole entry): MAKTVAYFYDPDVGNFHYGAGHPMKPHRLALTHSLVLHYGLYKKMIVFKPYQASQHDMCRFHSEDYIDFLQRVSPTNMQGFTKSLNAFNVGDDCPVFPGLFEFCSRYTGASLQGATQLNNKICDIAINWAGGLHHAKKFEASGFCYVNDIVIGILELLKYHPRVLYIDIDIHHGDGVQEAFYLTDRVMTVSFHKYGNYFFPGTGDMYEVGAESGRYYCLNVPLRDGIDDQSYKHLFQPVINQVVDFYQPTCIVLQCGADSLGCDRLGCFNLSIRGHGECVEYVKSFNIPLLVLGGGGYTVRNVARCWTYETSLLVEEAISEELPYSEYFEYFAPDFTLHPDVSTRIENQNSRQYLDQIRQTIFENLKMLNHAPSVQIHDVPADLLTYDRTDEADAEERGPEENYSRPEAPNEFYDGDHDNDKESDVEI
T4 sequence (Q9Y618 395-489 partner limits assumed): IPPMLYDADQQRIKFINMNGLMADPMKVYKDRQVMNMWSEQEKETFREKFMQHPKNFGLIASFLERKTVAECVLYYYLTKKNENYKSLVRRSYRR
Method: as §3

HDAC6 = target: T5, HDAC6 (Homo sapiens, UniProt Q9UBN7); test: biochemical
T5 construct: purchased BPS Bioscience
Method: as §3

HDAC2 = target: T6, HDAC2 (Homo sapiens, UniProt Q92769); test: biochemical; details: n ≥ 2, SD <10% of the mean; read-out: Enzyme inhibitory activity IC50, HDAC2
T6 construct: purchased BPS Bioscience
T6 sequence (Q92769 whole entry): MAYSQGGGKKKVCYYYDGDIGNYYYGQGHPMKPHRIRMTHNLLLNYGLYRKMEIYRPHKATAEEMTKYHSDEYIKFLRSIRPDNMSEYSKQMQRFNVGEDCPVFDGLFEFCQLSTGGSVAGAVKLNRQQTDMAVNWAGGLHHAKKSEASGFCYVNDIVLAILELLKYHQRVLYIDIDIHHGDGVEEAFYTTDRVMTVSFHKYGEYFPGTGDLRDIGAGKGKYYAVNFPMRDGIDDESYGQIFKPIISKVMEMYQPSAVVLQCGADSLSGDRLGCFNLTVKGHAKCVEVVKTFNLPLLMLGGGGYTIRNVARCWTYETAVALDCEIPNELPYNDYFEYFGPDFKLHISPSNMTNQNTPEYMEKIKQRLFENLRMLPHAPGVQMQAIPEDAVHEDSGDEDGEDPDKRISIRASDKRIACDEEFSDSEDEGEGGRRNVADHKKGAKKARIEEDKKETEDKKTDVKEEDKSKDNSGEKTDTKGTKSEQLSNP
Method: as §3

HDAC7 = target: T7, HDAC7 (Homo sapiens, UniProt Q8WUI4); test: In vitro HDAC inhibitory assay (fluorogenic substrate); format: biochemical; details: n ≥ 2, SD <10% of the mean; read-out: Enzyme inhibitory activity IC50, HDAC7
T7 construct: purchased BPS Bioscience
T7 sequence (Q8WUI4 whole entry): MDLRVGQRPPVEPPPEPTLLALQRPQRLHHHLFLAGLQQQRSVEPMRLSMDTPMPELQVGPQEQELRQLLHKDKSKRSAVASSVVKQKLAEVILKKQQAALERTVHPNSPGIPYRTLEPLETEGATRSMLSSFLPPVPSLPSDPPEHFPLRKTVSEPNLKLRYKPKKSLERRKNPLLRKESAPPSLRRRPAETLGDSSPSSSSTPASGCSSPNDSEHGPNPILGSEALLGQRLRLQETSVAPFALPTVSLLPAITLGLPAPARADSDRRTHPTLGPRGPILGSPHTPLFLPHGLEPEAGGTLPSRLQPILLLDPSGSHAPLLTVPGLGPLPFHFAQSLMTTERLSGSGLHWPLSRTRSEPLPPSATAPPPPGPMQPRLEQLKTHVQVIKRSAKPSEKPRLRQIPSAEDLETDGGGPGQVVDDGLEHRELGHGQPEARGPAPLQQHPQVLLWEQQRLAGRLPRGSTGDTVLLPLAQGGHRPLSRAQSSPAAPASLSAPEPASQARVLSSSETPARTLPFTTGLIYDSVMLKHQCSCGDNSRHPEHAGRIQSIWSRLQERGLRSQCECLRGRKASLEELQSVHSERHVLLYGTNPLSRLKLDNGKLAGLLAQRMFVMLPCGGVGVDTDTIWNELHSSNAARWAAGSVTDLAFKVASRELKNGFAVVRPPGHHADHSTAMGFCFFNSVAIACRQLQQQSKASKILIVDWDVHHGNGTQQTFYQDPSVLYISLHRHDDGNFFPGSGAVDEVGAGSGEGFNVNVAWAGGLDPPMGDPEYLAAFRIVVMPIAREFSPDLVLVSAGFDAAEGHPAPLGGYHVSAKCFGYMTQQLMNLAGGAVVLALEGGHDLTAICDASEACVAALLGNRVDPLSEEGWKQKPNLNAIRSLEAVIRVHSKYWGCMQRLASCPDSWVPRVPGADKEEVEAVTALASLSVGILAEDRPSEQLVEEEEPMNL
Method: as §3

HDAC1 = target: T8, HDAC1 (Homo sapiens, UniProt Q13547); test: as above; format: biochemical
T8 construct: purchased BPS Bioscience
T8 sequence (Q13547 whole entry): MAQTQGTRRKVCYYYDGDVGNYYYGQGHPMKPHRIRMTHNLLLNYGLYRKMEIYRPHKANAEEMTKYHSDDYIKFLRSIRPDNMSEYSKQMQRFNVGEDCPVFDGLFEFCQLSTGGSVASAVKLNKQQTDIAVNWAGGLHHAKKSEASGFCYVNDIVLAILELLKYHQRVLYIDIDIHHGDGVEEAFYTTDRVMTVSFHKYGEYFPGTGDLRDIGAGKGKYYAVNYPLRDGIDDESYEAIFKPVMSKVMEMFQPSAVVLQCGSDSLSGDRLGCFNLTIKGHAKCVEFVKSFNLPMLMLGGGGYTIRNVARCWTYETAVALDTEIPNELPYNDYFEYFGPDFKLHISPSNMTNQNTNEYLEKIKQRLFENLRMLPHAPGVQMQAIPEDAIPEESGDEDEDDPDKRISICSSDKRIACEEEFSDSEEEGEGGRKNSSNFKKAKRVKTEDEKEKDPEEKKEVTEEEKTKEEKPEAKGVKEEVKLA
Method: as §3

[4] = more potent than SAHA, ratio of IC50 values

`O=C(CCCCCCC(=O)Nc1ccccc1)NO` [SAHA, Suberoylanilide hydroxamic acid, reference compound] was tested. Which “Percentage of apoptotic HepG2 cells” value (HepG2 cells [1]; 1 µM) did it give?
The value was 4.52%.

What about the “Percentage of apoptotic HepG2 cells” value (HepG2 cells [1]; 3 µM) of the same compound?
Its value is 6.24%.

And the “Percentage of apoptotic HepG2 cells” value (HepG2 cells [1]; 9 µM)?
Its value is 20.32%.

What about the IC50 (A2780 cells) of the same compound?
The IC50 was 27.3 µM.

What about the “Effect on the population of HepG2 cells at the G0/G1 phase (in words)” value (HepG2 cells [2]; 1, 3, and 9 µM) of the same compound?
Its value is “no significant effects”.

How did the “Phosphorylation of cdc2” value (phosphorylated cdc2) turn out when `Nc1ccccc1NC(=O)c1ccc(N(CCCl)CCCl)cc1` [NA, N-(2-Aminophenyl)-4-(bis(2-chloroethyl)amino)benzamide] was run?
Its value is “up-regulated”.

What about the “Protein expression level of cleaved caspase-9” value (cleaved caspase-9) of the same compound?
Its value is “remarkedly increased”.

And the “Protein expression level of cleaved caspase-3” value (cleaved caspase-3)?
Its value is “remarkedly increased”.

And the IC50 (PNAC-1 cells)?
Its IC50 is 8.52 µM.

And the IC50 (SKOV3 cells)?
Its IC50 is 3.91 µM.

And the IC50 (A549 cells)?
The IC50 was 14.7 µM.

What about the IC50 (Colo205 cells) of the same compound?
Its IC50 is 33.8 µM.

What about the IC50 (MDA-MB-231 cells) of the same compound?
The IC50 was 7.64 µM.

What about the IC50 (U937 cells) of the same compound?
Its IC50 is 1.21 µM.

What about the IC50 (Calu-3 cells) of the same compound?
The IC50 was 5.81 µM.

What about the IC50 (HepG2 cells [3]; Homo sapiens, HepG2, 48 h, read-out: Antiproliferative activity IC50, HepG2) of the same compound?
The IC50 was 1.73 µM.

And the “Potency relative to SAHA, HepG2 cell growth inhibition” value (HepG2 cells [3]; [4])?
The value was 11.3 fold.

And the IC50 (MDA-MB-468 cells)?
The IC50 was 6.33 µM.

And the IC50 (MKN45 cells)?
Its IC50 is 14.3 µM.

And the IC50 (LoVo cells)?
The IC50 was 10.4 µM.

What about the IC50 (MCF-7 cells) of the same compound?
Its IC50 is 18.7 µM.

What about the “Percentage of apoptotic HepG2 cells” value (HepG2 cells [1]; 1 µM) of the same compound?
The value was 9.15%.

What about the “Percentage of apoptotic HepG2 cells” value (HepG2 cells [1]; 3 µM) of the same compound?
The value was 18.07%.

And the “Percentage of apoptotic HepG2 cells” value (HepG2 cells [1]; 9 µM)?
The value was 37.39%.

What about the IC50 (A2780 cells) of the same compound?
The IC50 was 2.66 µM.

What about the “Potency relative to SAHA, A2780 cell growth inhibition” value (A2780 cells; [4]) of the same compound?
The value was 10.3 fold.

And the IC50 (HDAC8)?
The IC50 was > 5 µM.

What about the IC50 (HDAC9) of the same compound?
The IC50 was > 5 µM.

What about the IC50 (HDAC4) of the same compound?
Its IC50 is > 5 µM.

And the IC50 (HDAC3)?
Its IC50 is 0.256 µM.

And the IC50 (HDAC6)?
Its IC50 is > 5 µM.

What about the IC50 (HDAC2) of the same compound?
The IC50 was 0.261 µM.

What about the “HepG2 cells at the G2/M phase” value (HepG2 cells [2]; 1 µM) of the same compound?
Its value is 25.98%.

What about the “HepG2 cell population at the G0/G1 phase” value (HepG2 cells [2]; 1 µM) of the same compound?
The value was 48.64%.

And the “HepG2 cells at the G2/M phase” value (HepG2 cells [2]; 3 µM)?
Its value is 35.05%.

And the “HepG2 cell population at the G0/G1 phase” value (HepG2 cells [2]; 3 µM)?
The value was 41.61%.

And the “HepG2 cells at the G2/M phase” value (HepG2 cells [2]; 9 µM)?
Its value is 38.89%.

And the “HepG2 cell population at the G0/G1 phase” value (HepG2 cells [2]; 9 µM)?
The value was 37.19%.

What about the IC50 (HDAC7) of the same compound?
Its IC50 is > 5 µM.

And the IC50 (HDAC1; n ≥ 2, SD <10% of the mean, read-out: Enzyme inhibitory activity IC50, HDAC1)?
The IC50 was 0.0952 µM.

And the “HDAC1 selectivity versus HDAC2” value (HDAC1; ratio of IC50 values, HDAC1 versus HDAC2)?
Its value is 2.74 fold.

And the “HDAC1 selectivity versus HDAC3” value (HDAC1; ratio of IC50 values, HDAC1 versus HDAC3)?
The value was 2.69 fold.
